The source of these data is US20230192657A1, “1,2,4-TRIAZOLINONE CB1 INHIBITORS” (Goldfinch Bio, Inc., priority 2020, published 2023).

The structures appear in SMILES notation.

Chain of CB1 receptor (P21554 whole entry): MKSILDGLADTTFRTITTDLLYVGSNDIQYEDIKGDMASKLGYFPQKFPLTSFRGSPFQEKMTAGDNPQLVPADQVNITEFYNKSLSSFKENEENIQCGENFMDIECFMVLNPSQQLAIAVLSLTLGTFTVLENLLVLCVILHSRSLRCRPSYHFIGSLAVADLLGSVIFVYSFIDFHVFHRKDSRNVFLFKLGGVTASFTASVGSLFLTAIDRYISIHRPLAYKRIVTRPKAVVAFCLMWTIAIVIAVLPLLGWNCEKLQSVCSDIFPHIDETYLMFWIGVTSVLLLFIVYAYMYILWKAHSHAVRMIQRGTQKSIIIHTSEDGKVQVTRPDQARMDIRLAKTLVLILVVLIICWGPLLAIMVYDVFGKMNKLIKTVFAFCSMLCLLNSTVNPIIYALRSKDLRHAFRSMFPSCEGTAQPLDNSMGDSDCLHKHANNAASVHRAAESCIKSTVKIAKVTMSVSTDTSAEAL

The target in this experiment is CB1 receptor (Homo sapiens, UniProt P21554). Put plainly: CB1 cAMP Antagonist Assay (LANCE Ultra cAMP kit). The class given is cell-based. The note with it: Flp-In CHO cells stably expressing the CB1 receptor; forskolin and CP55940 agonist at EC90; cAMP FRET readout. The text has this:
CB1 cAMP Antagonist Assay
LANCE Ultra cAMP kit (Perkin Elmer) was used to quantitate the amount of 3′,5′-cyclic adenosine monophosphate (cAMP) produced in Flp-In CHO (Invitrogen) cells stably expressing the CB1 receptor.
Forskolin was initially titrated to determine the response of the cells. The EC90 of forskolin was used for compound testing. CP55940 was titrated and used with EC90 of forskolin to determine the level of agonist stimulation. EC90 of the agonist was used for subsequent compound testing.
Forskolin (Sigma), CP55940 (Cayman Chemicals), and AM251 (MCE) were diluted in 100% DMSO, starting at 100 mM, 1 mM, and 1 mM respectively, in 3-fold serial dilutions. Test compounds were diluted in 100% DMSO starting from 10 mM, 3-fold dilutions. The cAMP assay buffer contains 1x Hank’s Buffered Saline Solution with Ca^2+ and Mg^2+ (Invitrogen), 5.3 mM HEPES (Invitrogen), 0.05% BSA, 0.5 mM IBMX (Sigma).
For all assays, cells were harvested, counted, and diluted in cAMP assay buffer to 1× 10^5 cells/mL. Only cells with viability >85% were used for the assay. Cells were seeded at 1000 cells/well in 384-well plates and 10 nL/well AM251 or test compound was added and incubated at 37° C. for 10 min. […] To detect the amount of cAMP produced, 5 µL of a 100x diluted stock of Eu-cAMP tracer and 5 µL of 200x diluted stock of Ulight-anti-cAMP were added to each well, and the plate incubated at 25° C. for 15 min. The FRET signal was read using an EnVision microplate reader (λex=320 nm, λem=615 nm and 665 nm).
The IC50 is determined by fitting the percentage of inhibition as a function of compound concentrations with the Hill equation, using a 4-parameter fit in either XLfit or GraphPad Prism.
Usually IC50 stands for the concentration at which inhibition is half-maximal. High values mean weaker potency, low ones greater potency. The compound `C[C@@H](C(N)=O)n1c(N2C[C@H](c3ccccc3)C(c3ccc(Cl)cc3)=N2)nn(Cc2ccc(Cl)cc2)c1=O` [Compound 176] yielded an IC50 of less than 100 nM.

For the compound `Cn1c(N2CC(c3ccccc3)C(c3ccc(Cl)cc3)=N2)nn(Cc2ccc(Cl)cn2)c1=O` (stereo not shown) [Compound 177], the IC50 is less than 100 nM.

`Cc1cc(Cn2nc(N3CC(c4ccccc4)C(c4ccc(Cl)cc4)=N3)n(C)c2=O)ccc1Cl` (stereo not shown) [Compound 178] showed an IC50 of less than 100 nM.

Compound `C[C@@H](C(N)=O)n1c(N2C[C@@H](c3ccccc3)C(c3ccc(Cl)cc3)=N2)nn(Cc2ccc(Cl)cc2)c1=O` [Compound 179] yielded an IC50 of more than 5000 nM.

`C[C@H](C(N)=O)n1c(N2C[C@@H](c3ccccc3)C(c3ccc(Cl)cc3)=N2)nn(Cc2ccc(Cl)cc2)c1=O` [Compound 180] returned an IC50 of more than 5000 nM.

The compound `Cn1c(N2C[C@@H](c3ccccc3)C(c3ccc(Cl)cc3)=N2)n[nH]c1=O` [Compound 181] showed an IC50 of more than 5000 nM.

With `Cn1c(N2CC(c3ccccc3)C(c3ccc(Cl)cc3)=N2)nn(Cc2cccc(C(N)=O)c2)c1=O` (stereo not shown) [Compound 182], the IC50 lay within 100 to 1000 nM.

In the case of `Cc1ccc(Cn2nc(N3CC(c4ccccc4)C(c4ccc(Cl)cc4)=N3)n(C)c2=O)cn1` (stereo not shown) [Compound 183], the IC50 is 100 to 1000 nM.

For `C[C@@H](C(=O)NCCO)n1c(N2C[C@H](c3ccccc3)C(c3ccc(Cl)cc3)=N2)nn(Cc2ccc(Cl)cc2)c1=O` [Compound 184, (2S)-2-[3-[(4S)-3-(4-chlorophenyl)-4-phenyl-4,5-dihydropyrazol-1-yl]-1-[(4-chlorophenyl)methyl]-5-oxo-1,2,4-triazol-4-yl]-N-(2-hydroxyethyl)propanamide], the IC50 is less than 100 nM.

Take `Cn1c(N2CC(c3ccccc3)C(c3ccc(Cl)cc3)=N2)nn(Cc2cccc(C(=O)O)c2)c1=O` (stereo not shown) [Compound 186]: the IC50 is more than 5000 nM.

As to `C[C@@H](C(=O)NCCO)n1c(N2C[C@@H](c3ccccc3)C(c3ccc(Cl)cc3)=N2)nn(Cc2ccc(Cl)cc2)c1=O` [Compound 187, (2S)-2-[3-[(4R)-3-(4-chlorophenyl)-4-phenyl-4,5-dihydropyrazol-1-yl]-1-[(4-chlorophenyl)methyl]-5-oxo-1,2,4-triazol-4-yl]-N-(2-hydroxyethyl)propanamide], the IC50 was more than 5000 nM.

On to `COC(=O)c1cccc(Cn2nc(N3CC(c4ccccc4)C(c4ccc(Cl)cc4)=N3)n(C)c2=O)c1` (stereo not shown) [Compound 189], for which the IC50 was in the range of 100 to 1000 nM.

`C[C@H](C(=O)NCCO)n1c(N2C[C@H](c3ccccc3)C(c3ccc(Cl)cc3)=N2)nn(Cc2ccc(Cl)cc2)c1=O` [Compound 190, (2R)-2-[3-[(4S)-3-(4-chlorophenyl)-4-phenyl-4,5-dihydropyrazol-1-yl]-1-[(4-chlorophenyl)methyl]-5-oxo-1,2,4-triazol-4-yl]-N-(2-hydroxyethyl)propanamide] had an IC50 of less than 100 nM.

On to `C[C@H](C(=O)NCCO)n1c(N2C[C@@H](c3ccccc3)C(c3ccc(Cl)cc3)=N2)nn(Cc2ccc(Cl)cc2)c1=O` [Compound 191, (2R)-2-[3-[(4R)-3-(4-chlorophenyl)-4-phenyl-4,5-dihydropyrazol-1-yl]-1-[(4-chlorophenyl)methyl]-5-oxo-1,2,4-triazol-4-yl]-N-(2-hydroxyethyl)propanamide], for which the IC50 fell in the range of 100 to 1000 nM.

`Cn1c(N2CC(c3ccccc3)C(c3ccc(Cl)cc3)=N2)nn(Cc2ccc(C(N)=O)cc2)c1=O` (stereo not shown) [Compound 192, 4-([3-[3-(4-chlorophenyl)-4-phenyl-4,5-dihydropyrazol-1-yl]-4-methyl-5-oxo-1,2,4-triazol-1-yl]methyl)benzamide] yielded an IC50 of 100 to 1000 nM.

`Cn1nc(N2CC(c3ccccc3)C(c3ccc(Cl)cc3)=N2)n(Cc2ccccc2)c1=O` (stereo not shown) [Compound 193, 4-benzyl-5-[3-(4-chlorophenyl)-4-phenyl-4,5-dihydropyrazol-1-yl]-2-methyl-1,2,4-triazol-3-one] had an IC50 of 100 to 1000 nM.
